In ChEMBL document CHEMBL1156236, “Trypanoside, anti-tuberculosis, leishmanicidal, and cytotoxic activities of tetrahydrobenzothienopyrimidines” (Bioorg Med Chem, 2010):
In brackets after ≈: the same amount, converted by molar mass. Activity calls are given as the source filed them. No cut-off for these calls is given here.

Key:
[1] = Cytotoxicity against BALB mouse 3T3 cells; type: cell-based; details: BALB 3T3 cells
[2] = Selectivity index, ratio of IC50 for BALB/c mouse macrophages to IC50 for Leishmania amazonensis MHOM/BR/76/LTB-012
[3] = tested on: HT-29; assay: Cytotoxicity against human HT-29 cells; type: functional
[4] = tested on: K562; assay: Cytotoxicity against human K562 cells; type: functional
[5] = tested on: Trypanosoma cruzi; assay: Antitrypanosomal activity against Trypanosoma cruzi tulahuen C4 trypomastigotes infected in african green monkey Vero cells assessed as CPRG cleavage after 120 hrs by microplate reader; type: functional, organism-based
[6] = Selectivity index, ratio of IC50 for african green monkey Vero cells to MIC for Mycobacterium tuberculosis H37Rv ATCC 27294 by microplate alamar blue assay; type: functional
[7] = Selectivity index, ratio of IC50 for african green monkey Vero cells to IC50 for Trypanosoma cruzi tulahuen C4; details: Vero cells
[8] = tested on: DU-145; assay: Cytotoxicity against human DU145 cells; type: functional
[9] = tested on: Mycobacterium tuberculosis; assay: Antitubercular activity against Mycobacterium tuberculosis H37Rv ATCC 27294 after 7 days by low oxygen recovery assay; type: functional; details: H37Rv ATCC 27294, 168 h
[10] = tested on: Leishmania amazonensis; assay: Antileishmanial activity against Leishmania amazonensis MHOM/BR/76/LTB-012 amastigotes infected BALB/c mouse macrophages after 48 hrs by MTT assay; type: functional, organism-based; details: MHOM/BR/76/LTB-012, 48 h
[11] = Selectivity index, ratio of IC50 for african green monkey Vero cells to MIC for Mycobacterium tuberculosis H37Rv ATCC 27294 by low oxygen recovery assay; type: functional
[12] = Cytotoxicity against BALB/c mouse macrophages after 48 hrs by trypan blue dye exclusion method; type: cell-based; details: Macrophage
[13] = tested on: M14; assay: Cytotoxicity against human M14 cells; type: functional
[14] = tested on: NCI-H460; assay: Cytotoxicity against human NCI-H460 cells; type: functional
[15] = tested on: Mycobacterium tuberculosis; assay: Antitubercular activity against Mycobacterium tuberculosis H37Rv ATCC 27294 after 7 days by microplate alamar blue assay; type: functional; details: H37Rv ATCC 27294, 168 h
[16] = tested on: Vero; assay: (§1) Cytotoxicity against african green monkey Vero cells after 72 hrs by MTS assay; details: Chlorocebus sabaeus, Vero, 72 h
[17] = tested on: MCF7; assay: Cytotoxicity against human MCF7 cells; type: functional
[18] = tested on: Trypanosoma cruzi; assay: Antitrypanosomal activity against Trypanosoma cruzi tulahuen C4 trypomastigotes infected mouse assessed as decrease in parasite replication at 20 mg/kg/day, ip on days 6 to 11 days post infection after 6 days; type: functional, organism-based
[19] = as §1; details: chlorocebus sabaeus, Vero cells
[20] = tested on: Leishmania amazonensis; assay: (§2) Antileishmanial activity against Leishmania amazonensis LV79 MPRO/BR/72/M1841 amastigotes infected BALB/c mouse assessed as reduction of parasite burden at 5 mg/kg/day, intralesionally administered after 1 week post infection 3 times per week for 6 weeks measured on week 7 by fluorescence method relative to control; type: functional; set-up: scale not given: the % may be the effect or the level left
[21] = tested on: Leishmania peruviana; assay: Antileishmanial activity against Leishmania peruviana MHOM/PE/LCA08 promastigote infected BALB/c mouse macrophages after 48 hrs by Giemsa staining method; type: functional, organism-based; details: MHOM/PE/LCA08, 48 h
[22] = tested on: Leishmania braziliensis; assay: Antileishmanial activity against Leishmania braziliensis MHOM/PE/PER006 promastigote infected BALB/c mouse macrophages after 48 hrs by Giemsa staining method; type: functional, organism-based; details: MHOM/PE/PER006, 48 h
[23] = tested on: Leishmania amazonensis; assay: Antileishmanial activity against Leishmania amazonensis LV79 MPRO/BR/72/M1841 amastigotes infected BALB/c mouse assessed as lesion diameter at 5 mg/kg/day, intralesionally administered after 1 week post infection 3 times per week for 6 weeks measured on week 4 relative to control; type: functional
[24] = tested on: Leishmania amazonensis; assay: Antileishmanial activity against Leishmania amazonensis LV79 MPRO/BR/72/M1841 amastigotes infected BALB/c mouse assessed as lesion diameter at 5 mg/kg/day, intralesionally administered after 1 week post infection 3 times per week for 6 weeks measured on week 7 relative to control; type: functional
[25] = tested on: Leishmania amazonensis; assay: as §2, with “week 4” for “week 7”; type: functional; set-up: scale not given: the % may be the effect or the level left
[26] = tested on: Leishmania amazonensis; assay: Antileishmanial activity against Leishmania amazonensis Lma CL1 amastigotes infected BALB/c mouse macrophages after 48 hrs by Giemsa staining method; type: functional, organism-based; details: Lma CL1, 48 h
[27] = tested on: Leishmania amazonensis; assay: Antileishmanial activity against Leishmania amazonensis LV79 MPRO/BR/72/M1841 amastigotes infected BALB/c mouse assessed as lesion diameter at 33 mg/kg/day, intralesionally administered after 1 week post infection 3 times per week for 6 weeks measured on week 4 relative to control; type: functional, organism-based
[28] = tested on: Leishmania amazonensis; assay: as §2, with “at 33” for “at 5”, “week 4” for “week 7”; type: functional, organism-based; set-up: scale not given: the % may be the effect or the level left
[29] = tested on: Leishmania amazonensis; assay: Antileishmanial activity against Leishmania amazonensis LV79 MPRO/BR/72/M1841 amastigotes infected BALB/c mouse assessed as lesion diameter at 33 mg/kg/day, intralesionally administered after 1 week post infection 3 times per week for 6 weeks measured on week 7 relative to control; type: functional, organism-based
[30] = tested on: Leishmania amazonensis; assay: as §2, with “33” for “5”; type: functional, organism-based; set-up: scale not given: the % may be the effect or the level left

| Compound | GI50 [1] [µM] | Ratio IC50 [2] | GI50 [3] [µM] | GI50 [4] [µM] | IC50 [5] [µM] | Ratio IC50 [6] | selectivity ratio [7] | GI50 [8] [µM] | MIC [9] [µM] | IC50 [10] [µM] | Ratio IC50 [11] | IC50 [12] [µM] | GI50 [13] [µM] | GI50 [14] [µM] | MIC [15] [µM] | IC50 [16] [µM] | GI50 [17] [µM] | Activity [20] [%] | IC50 [21] [µM] | Activity [24] [mm] | other results |
| --- | --- | --- | --- | --- | --- | --- | --- | --- | --- | --- | --- | --- | --- | --- | --- | --- | --- | --- | --- | --- | --- |
| C/C(=N/Nc1ncnc2sc3c(c12)CCCC3)c1ccccc1 | 5.4 | 5.6 | 21.9 | 10.9 | 13.7 | 1.4 | 0.9 | 16.1 | 8.7 (≈ 2.81 µg/mL) | 28.5 | 11.5 | 159 | 19.8 | 15.9 | 72.6 (≈ 23.4 µg/mL) | 12.4 | 16.5 |  |  |  |  |
| C(=C\c1ccccc1)/C=N/Nc1ncnc2sc3c(c12)CCCC3 | 4.4 | 0.1 | 8.2 | 1.6 | 1.4 | 0.1 | 14.6 | 5.4 |  | 16.6 |  | 1.7 | 4.6 | 2.1 | 35 (≈ 11.7 µg/mL) | 20.9 | 2.1 |  |  |  | Activity [18]: inactive |
| CO[C@H]1/C=C/O[C@@]2(C)Oc3c(C)c(O)c4c(O)c(c(/C=N/N5CCN(C)CC5)c(O)c4c3C2=O)NC(=O)/C(C)=C\C=C\[C@H](C)[C@H](O)[C@@H](C)[C@@H](O)[C@@H](C)[C@H](OC(C)=O)[C@@H]1C [RIFAMPIN] |  |  |  |  |  | 1080 |  |  | < 1.9 |  |  |  |  |  | 0.1 (≈ 0.0823 µg/mL) |  |  |  |  |  | selectivity ratio at 72 h [19]: 1080 |
| CCC(CC)=NNc1ncnc2sc3c(c12)CCCC3 | 4.8 | 8.5 | 38.9 | 11.6 | 20.7 | 0.7 | 1 | 15 |  | 19 |  | 162 | 20.6 | 15.2 | 160 (≈ 46.2 µg/mL) | 20.8 | 15.1 | 17 | 7 | 4.9 | IC50 [22]: 11.1 µM; Activity [23]: 2.8 mm; Activity [25]: 65%; IC50 [26]: 10.9 µM |
| O=C(Cn1ccnc1[N+](=O)[O-])NCc1ccccc1 |  |  |  |  |  |  |  |  |  |  |  |  |  |  |  |  |  |  |  |  | Activity [18]: Active |
| Clc1ccc(/C=N/Nc2ncnc3sc4c(c23)CCCC4)cc1 | 18.7 | 85.2 | 15.1 | 6.7 | 13.1 |  | 1.6 | 14.6 |  | 1.7 |  | 142 | > 170 | 12.8 | > 250 | 20.4 | 8.4 | 25 | > 30 | 5.2 | IC50 [22]: 17.3 µM; Activity [23]: 3.6 mm; Activity [25]: 46%; IC50 [26]: > 30 µM |
| COc1ccc(/C=N/Nc2ncnc3sc4c(c23)CCCC4)cc1 | 14.9 | 1.3 | 17.3 | 13.9 | 16 | 3.2 | 1.1 | 23.1 | 26.9 (≈ 9.1 µg/mL) | 47.5 | 8.4 | 63.9 | 16.3 | 17.1 | 71.2 (≈ 24.1 µg/mL) | 17.7 | 12.5 |  |  |  |  |
| FC(F)(F)c1ccc(/C=N/Nc2ncnc3sc4c(c23)CCCC4)cc1 | 10.8 | 4.1 | 7 | 6.6 | 10.5 | 5.5 | 0.8 | 14.8 | 15.9 (≈ 5.98 µg/mL) | 2 | 5.6 | 8.1 | 16.9 | 15.3 | 16.2 (≈ 6.1 µg/mL) | 8 | 5.4 |  |  |  |  |
| CCc1ccc(/C=N/Nc2ncnc3sc4c(c23)CCCC4)cc1 | 36.1 | 9.6 | 32.2 | 11.1 | > 25 |  |  | 58.8 |  | 15.7 |  | 151 | 190 | 28.2 | > 250 |  | 18.5 | 2 | 9.5 | 4.7 | IC50 [22]: 10.5 µM; Activity [23]: 3 mm; Activity [25]: 30%; IC50 [26]: 8.2 µM |
| MEGLUMINE ANTIMONATE |  |  |  |  |  |  |  |  |  |  |  |  |  |  |  |  |  |  |  | 4.7 | Activity [27]: 2.1 mm; Activity [28]: 100%; Activity [29]: 2.2 mm; Activity [30]: 100% |
